Consider 4 molecules from publication PMC6470838 (Pharmaceutics, 2019).

For series [1], the system named is prothrombin time. To be noted: humans; cited from earlier work.
A short description of series [2]: Rivaroxaban plasma pharmacokinetics after oral administration in rats (model independent analysis). Type of series: in vivo, Sprague Dawley rats. As for the experimental part: The animals used in this study were 15 Sprague Dawley rats (8-week-old males, 280–300 g). […] The study protocol was approved by the Institutional Animal Care and Use Committees (IACUC) at Chung-Ang University. All animals used in this study were cared for in accordance with the principles outlined in the National Institutes of Health Guide for the Care and Use of Laboratory Animals.
(§1) All drugs were suspended in corn oil and administered orally.
(§2) After centrifugation (17,000 rpm, 10 min), plasma samples were stored at –70 °C until analysis, using 30 μL of plasma.
Acetonitrile (90 μL) including flufenamic acid (10 ng/mL) was added to the plasma samples (30 μL). The mixture was vigorously vortexed for 10 s and centrifuged at 17,000 rpm for 10 min. A 5-μL sample of the supernatant was injected onto the LC-MS/MS.
The compounds were purified on a reversed-phase column (Atlantis® T3, 50 × 2.1 mm internal diameter, 3 µm particle size; Waters) at 30 °C.

The test system of series [3] is prothrombin time.
Another series is described as follows: in vivo. The conditions noted are these: male, Sprague Dawley, rat, plasma, oral, 2 mg/kg.
In series [4] the test system is prothrombin time. Description: Prothrombin time after oral administration of rivaroxaban in rats. The conditions noted are these: for AUEC, area under the percentage increase of prothrombin time vs. time curve / Emax, maximum percentage increase of prothrombin time: rivaroxaban 2 mg/kg oral, alone or with verapamil 25 mg/kg or diltiazem 30 mg/kg, mean (RSD %), n = 5. Type of series: in vivo, Sprague Dawley rats. As for the experimental part: as §1, §2
Prothrombin time was measured using a blood coagulation analyzer (ACL 7000, Instrumentation Laboratory, Bedford, MA, USA) at Korea Conformity Laboratories (Incheon, Korea) using PT recombiPlasTin 2G reagent (Instrumentation Laboratory, Bedford, MA, USA).
The time courses of prothrombin time were used to determine pharmacodynamic parameters: peak effect observed (Emax,observed) was directly obtained from the individual time courses; and the area under the effect-time curve (AUECt) was calculated by the trapezoidal rule.

For series [5] the following is noted: ketoconazole 400 mg, qd; cited from earlier work.
Where [6] appears, read: male, Sprague Dawley, rat, plasma, po, 2 mg/kg.
Where [7] appears, read: PK/PD model parameter of rivaroxaban, presence or absence of verapamil, mean (RSD %), n = 5.
Where [8] appears, read: compared with rivaroxaban 2 mg/kg alone, verapamil 25 mg/kg oral, rats.
Setting [9] is: diltiazem 30 mg/kg oral, rats, vs rivaroxaban alone.

As a reminder, the AUC(0-inf) is total exposure, with the tail of the curve extrapolated. A high value points to high exposure. The CL/F is the apparent clearance, not corrected for the fraction that reaches the circulation. In general, Cmax refers to the highest concentration seen after dosing. For orientation: Tmax means the time at which the peak concentration occurs. In general, Vd/F refers to the volume of distribution divided by bioavailability.

SMILES strings stand for the structures. Read-outs that look alike come from different tables or passages of the source.

`O=C(NC[C@H]1CN(c2ccc(N3CCOCC3=O)cc2)C(=O)O1)c1ccc(Cl)s1` [Rivaroxaban]: the “Slope of relative prothrombin time vs. rivaroxaban plasma concentration” value in the series with prothrombin time [1] is “approximately 0.0029”. In addition, in series [2] (setting [6]), the AUC(0-inf) came out at 2700 ng·h/mL, the CL/F was 12.9 mL/min/kg, the Cmax is 373 ng/mL and the Tmax is 2.8 h. For the same molecule, the AUCinf in series [2] (rivaroxaban in plasma, rivaroxaban 2 mg/kg oral, alone or with verapamil 25 mg/kg or diltiazem 30 mg/kg, mean (RSD %), n = 5) was found to be 2700 ng·h/mL. In the series with prothrombin time [3] (setting [7]), the “Slope, percentage increase of prothrombin time vs. rivaroxaban plasma concentration” value was 0.08 (44) %·mL/ng; the “f, absorption fraction” value is recorded as 0.61 (30) fraction; the “ka, absorption rate constant” value was 0.63 (22) h^−1; the “ttransit, transit time” value is 6.37 (21) h. In addition, the “ttransit, transit time” value with prothrombin time [3] (PK/PD model parameter of rivaroxaban, presence or absence of verapamil, mean (RSD %), n = 5, listed as rivaroxaban) was 6.4 h. In addition, the “Slope of relative prothrombin time (ratio of the baseline level) vs. rivaroxaban plasma concentration” value with prothrombin time [3] (rats, prothrombin times rescaled to ratio of baseline) turned out to be 0.00054. The “Part of the dose initially absorbed, contributing to the first peak” value in the series with prothrombin time [3] (rivaroxaban alone, model estimate) was 40%. Besides, in the series “in vivo”, the Vd/F amounted to 0.96 L/kg and the k el was 0.000236 s⁻¹. Also, in the series with prothrombin time [4], the “AUEC, area under the percentage increase of prothrombin time vs. time curve” value is 188 (9) % ∙h and the “Emax, maximum percentage increase of prothrombin time” value is 30 (11) %. In the series with prothrombin time [4] (listed as rivaroxaban), the “AUEC, area under the percentage increase of prothrombin time vs. time curve” value came to 188 % ∙h and the “Emax, maximum percentage increase of prothrombin time” value was found to be 30%.

For `COc1ccc(CCN(C)CCCC(C#N)(c2ccc(OC)c(OC)c2)C(C)C)cc1OC` (stereo not shown) [Verapamil], the “Effect of the co-administered drug on the slope (percentage increase of prothrombin time vs. rivaroxaban concentration)” value with prothrombin time [3] (verapamil 25 mg/kg, rats) is reported as “no difference”. Also, in the series on prothrombin time [4] (setting [8]), the “Increase of AUEC of prothrombin time by the co-administered drug” value was 2.6 fold and the “Increase of Emax of prothrombin time by the co-administered drug” value is on record as 2.5 fold.

For `COc1ccc([C@@H]2Sc3ccccc3N(CCN(C)C)C(=O)[C@@H]2OC(C)=O)cc1` [diltiazem], the “Effect of the co-administered drug on clearance and AUCinf of rivaroxaban” value in series [2] (setting [9]) is “no statistical differences”. Further, in the series with prothrombin time [4] (setting [9]), the “Effect of the co-administered drug on Emax and AUEC of prothrombin time” value is “did not represent any significant changes”.

As for `CC(=O)N1CCN(c2ccc(OCC3COC(Cn4ccnc4)(c4ccc(Cl)cc4Cl)O3)cc2)CC1` (stereo not shown) [ketoconazole], the “Effect of the concomitant drug on the systemic exposure of rivaroxaban” value in series [5] is recorded as “significantly increased”.
